Assay results: patent US4405743A, “Pyrazolylpyrimidine derivatives” (Hokko Chemical Industry Co., Ltd., priority 1981, dated 1983)
≈ marks a conversion by molar mass, not a printed value. Read-outs that look alike come from different tables or passages of the source.

What was measured:
Sphaerotheca friliginea = experiment: Effect of controlling cucumber powdery mildew, Experimental Example 4; assay type: in vivo; conditions: sprayed liquid 200 ppm, 10 days after inoculation
Procedure: 10 ml of each of test liquids diluted to a predetermined concentration was sprayed over seedlings of a cucumber plant (variety: Sagami Hanpaku) grown up to the first leaf stage which has been soil cultured in an unglazed pot with a diameter of 9 cm in a green house. After allowing to stand overnight, the seedlings were sprayed for inoculation with a spore suspension of Sphaerotheca friliginea. Ten days after the inoculation, the rate of a lesion area (%) was checked and a control value was evaluated from the following equation. The degree of chemical injury against a cucumber plant was determined in the same manner as in Experimental Example.

Cochliobolus miyabeanus [1] = experiment: Effect of controlling rice brown spot, Experimental Example 3; assay type: in vivo, Cochliobolus miyabeanus on rice plant (variety: Asahi); conditions: sprayed liquid 500 ppm, 5 days after inoculation
Pyricularia oryzae [2] = assay type: in vivo, Pyricularia oryzae on rice plant (variety: Asahi); conditions: rice blast, prevention; 200 ppm; 5 days after inoculation
rice plant [3] = conditions: blast curative test, 200 ppm
rice plant [4] = conditions: blast prevention test, 200 ppm
Cochliobolus miyabeanus [5] = experiment: Antimicrobial activity (mycelium growth inhibition, PDA medium); assay type: cell-based; conditions: Bipolaris oryzae, read-out: ED50 value
Pyricularia oryzae [6] = experiment: microbe, parasite or virus in culture; assay type: cell-based; conditions: read-out: ED50 value
Pyricularia oryzae [7] = assay type: in vivo, Pyricularia oryzae on rice plant (variety: Asahi); conditions: rice blast, curative treatment; sprayed liquid 200 ppm; 5 days after spraying
Alternaria padwikii = experiment: Antimicrobial activity (mycelium growth inhibition, PDA medium); assay type: cell-based; conditions: 24° C., read-out: ED50 value
Procedure: (§1) Experimental Example 5 (Test for Antimicrobial Activity Against Various Plant Phathogenic Fungi)
(§2) 1 ml of an acetone solution of each of test compounds and 20 ml of the PDA medium (50° C.) to prepare media containing the chemical in different concentrations, followed by charging into a petri dish with a diameter of 9 cm where it was solidified flat. On the central portion of the chemical-containing medium was inoculated a fungus-containing medium a piece of ager black-containing mycelia which was obtained by punching by means of a cork borer the tip portion of mycelia of each test fungus which had been cultured in advance in the PDA medium, followed by cultivating at 24° C. Two to six days after the cultivation, the diameter of the mycelia was measured and mycelium growth inhibiting rate was calculated from a comparison with that of a non-treated plot. The mycelium growth inhibiting rate was plotted on a logarithmic probability paper to determine an ED50 value.

Penicillium digitatum = experiment: as above; assay type: cell-based; conditions: 24° C., read-out: ED50 value
Procedure: as §1, §2

Botrytis cinerea = experiment: as above; assay type: cell-based; conditions: 24° C., read-out: ED50 value
Procedure: as §1, §2

Sclerotinia fructigena = experiment: as above; assay type: cell-based; conditions: 24° C., read-out: ED50 value
Procedure: as §1, §2

Mycosphaerella melonis = experiment: as above; assay type: cell-based; conditions: 24° C., read-out: ED50 value
Procedure: as §1, §2

Glomerella cingulata = experiment: as above; assay type: cell-based; conditions: Colletotrichum gloeosporioides, 24° C., read-out: ED50 value
Procedure: as §1, §2

[8] = test system: Helminthosporium gramineum; experiment: as above; assay type: cell-based; conditions: 24° C., read-out: ED50 value
Procedure: as §1, §2

Pellicularia sasakii = experiment: as above; assay type: cell-based; conditions: 24° C., read-out: ED50 value
Procedure: as §1, §2

Endothia parasitica = experiment: as above; assay type: cell-based; conditions: Cryphonectria parasitica, 24° C., read-out: ED50 value
Procedure: as §1, §2

Sclerotinia sclerotiorum = experiment: as above; assay type: cell-based; conditions: 24° C., read-out: ED50 value
Procedure: as §1, §2

Fusarium nivale = experiment: as above; assay type: cell-based; conditions: Microdochium nivale, 24° C., read-out: ED50 value
Procedure: as §1, §2

Phizoctonia solani = experiment: as above; assay type: cell-based; conditions: 24° C., read-out: ED50 value
Procedure: as §1, §2

Curvularia sp. = experiment: as above; assay type: cell-based; conditions: 24° C., read-out: ED50 value
Procedure: as §1, §2

Phoma lingam = experiment: as above; assay type: cell-based; conditions: Plenodomus lingam, 24° C., read-out: ED50 value
Procedure: as §1, §2

Diaporthe citri = experiment: as above; assay type: cell-based; conditions: 24° C., read-out: ED50 value
Procedure: as §1, §2

rice plant [9] = test system: rice plant
rice blast = conditions: Annual Report of the Takeda's Research Institute, Vol. 24, pages 250-258 (1965); cited from earlier work
[10] = Annual Report of the Takeda's Research Institute, Vol. 24, pages 250-258 (1965); cited from earlier work

## CCCCc1c(C)nc(-n2nc(C)cc2C)nc1SCC [Compound 42]
Sphaerotheca friliginea
  Control Value: 92%
Cochliobolus miyabeanus [1]
  Control Value: 100%
Pyricularia oryzae [2]
  Control Value: 100%
Rice plant [3]
  Degree of chemical injury: 0
Rice plant [4]
  Degree of chemical injury: 0
Cochliobolus miyabeanus [5]
  IC50: 1.8 µg/mL (≈ 5.91 µM)
Pyricularia oryzae [6]
  IC50: 0.02 µg/mL (≈ 0.0657 µM)
Pyricularia oryzae [7]
  Control Value: 100%
Alternaria padwikii
  IC50: 0.7 µg/mL (≈ 2.3 µM)
Penicillium digitatum
  IC50: 2 µg/mL (≈ 6.57 µM)
Botrytis cinerea
  IC50: 3.7 µg/mL (≈ 12.2 µM)
Sclerotinia fructigena
  IC50: 2.1 µg/mL (≈ 6.9 µM)
Mycosphaerella melonis
  IC50: 0.9 µg/mL (≈ 2.96 µM)
Glomerella cingulata
  IC50: 4 µg/mL (≈ 13.1 µM)
[8]
  IC50: 5.2 µg/mL (≈ 17.1 µM)
Pellicularia sasakii
  IC50: 2 µg/mL (≈ 6.57 µM)
Endothia parasitica
  IC50: 3.8 µg/mL (≈ 12.5 µM)
Sclerotinia sclerotiorum
  IC50: 5.2 µg/mL (≈ 17.1 µM)
Fusarium nivale
  IC50: 2 µg/mL (≈ 6.57 µM)
Phizoctonia solani
  IC50: 1.3 µg/mL (≈ 4.27 µM)
Curvularia sp.
  IC50: 1.4 µg/mL (≈ 4.6 µM)
Phoma lingam
  IC50: 3.2 µg/mL (≈ 10.5 µM)
Diaporthe citri
  IC50: 2.7 µg/mL (≈ 8.87 µM)
Cucumber plant; in vivo
  Degree of chemical injury: 0
Rice plant [9]; in vivo
  Degree of chemical injury: 0

## CCOc1nc(-n2nc(C)cc2C)ncc1C [Compound 32]
Sphaerotheca friliginea
  Control Value: 93%
Cochliobolus miyabeanus [1]
  Control Value: 76%
Pyricularia oryzae [2]
  Control Value: 100%
Rice plant [3]
  Degree of chemical injury: 0
Rice plant [4]
  Degree of chemical injury: 0
Cochliobolus miyabeanus [5]
  IC50: 3.8 µg/mL (≈ 16.4 µM)
Pyricularia oryzae [6]
  IC50: 0.8 µg/mL (≈ 3.44 µM)
Pyricularia oryzae [7]
  Control Value: 93%
Alternaria padwikii
  IC50: 1.2 µg/mL (≈ 5.17 µM)
Penicillium digitatum
  IC50: 0.6 µg/mL (≈ 2.58 µM)
Botrytis cinerea
  IC50: 13.8 µg/mL (≈ 59.4 µM)
Sclerotinia fructigena
  IC50: 0.9 µg/mL (≈ 3.87 µM)
Mycosphaerella melonis
  IC50: 1.8 µg/mL (≈ 7.75 µM)
Glomerella cingulata
  IC50: 7 µg/mL (≈ 30.1 µM)
[8]
  IC50: 7.5 µg/mL (≈ 32.3 µM)
Pellicularia sasakii
  IC50: 1.5 µg/mL (≈ 6.46 µM)
Endothia parasitica
  IC50: 7.5 µg/mL (≈ 32.3 µM)
Sclerotinia sclerotiorum
  IC50: 5.5 µg/mL (≈ 23.7 µM)
Fusarium nivale
  IC50: 2.3 µg/mL (≈ 9.9 µM)
Phizoctonia solani
  IC50: 2.4 µg/mL (≈ 10.3 µM)
Curvularia sp.
  IC50: 1.6 µg/mL (≈ 6.89 µM)
Phoma lingam
  IC50: 5.3 µg/mL (≈ 22.8 µM)
Diaporthe citri
  IC50: 4 µg/mL (≈ 17.2 µM)
Cucumber plant; in vivo
  Degree of chemical injury: 0
Rice plant [9]; in vivo
  Degree of chemical injury: 0

## Cc1cc(C)n(-c2nccc(Sc3ccccc3)n2)n1 [Compound 4]
Sphaerotheca friliginea
  Control Value: 90%
Cochliobolus miyabeanus [1]
  Control Value: 85%
Pyricularia oryzae [2]
  Control Value: 100%
Rice plant [3]
  Degree of chemical injury: 0
Rice plant [4]
  Degree of chemical injury: 0
Cochliobolus miyabeanus [5]
  IC50: 4.6 µg/mL (≈ 16.3 µM)
Pyricularia oryzae [6]
  IC50: 0.1 µg/mL (≈ 0.354 µM)
Pyricularia oryzae [7]
  Control Value: 100%
Alternaria padwikii
  IC50: 1.2 µg/mL (≈ 4.25 µM)
Penicillium digitatum
  IC50: 1.3 µg/mL (≈ 4.6 µM)
Botrytis cinerea
  IC50: 6.5 µg/mL (≈ 23 µM)
Sclerotinia fructigena
  IC50: 0.4 µg/mL (≈ 1.42 µM)
Mycosphaerella melonis
  IC50: 5.2 µg/mL (≈ 18.4 µM)
Glomerella cingulata
  IC50: 4.1 µg/mL (≈ 14.5 µM)
[8]
  IC50: 2.4 µg/mL (≈ 8.5 µM)
Pellicularia sasakii
  IC50: 1.2 µg/mL (≈ 4.25 µM)
Endothia parasitica
  IC50: 1.9 µg/mL (≈ 6.73 µM)
Sclerotinia sclerotiorum
  IC50: 3.2 µg/mL (≈ 11.3 µM)
Fusarium nivale
  IC50: 5.3 µg/mL (≈ 18.8 µM)
Phizoctonia solani
  IC50: 1.1 µg/mL (≈ 3.9 µM)
Curvularia sp.
  IC50: 0.7 µg/mL (≈ 2.48 µM)
Phoma lingam
  IC50: 2.1 µg/mL (≈ 7.44 µM)
Diaporthe citri
  IC50: 2.7 µg/mL (≈ 9.56 µM)
Cucumber plant; in vivo
  Degree of chemical injury: 0
Rice plant [9]; in vivo
  Degree of chemical injury: 0

## Cc1cc(C)n(-c2nc(O)cc(-c3ccccc3)n2)n1 [Comparative Chemical 2, 2-(3,5-dimethyl-1-pyrazolyl)-4-phenyl-6-hydroxypyrimidine, reference compound]
Sphaerotheca friliginea
  Control Value: 48.3%
Cochliobolus miyabeanus [1]
  Control Value: 73%
Rice blast
  activity of controlling rice blast: show an activity of controlling rice blast
Pyricularia oryzae [2]
  Control Value: 76%
Rice plant [3]
  Degree of chemical injury: 5
Rice plant [4]
  Degree of chemical injury: 5
[10]
  chemical injury: violent chemical injury
Pyricularia oryzae [7]
  Control Value: 71%
Cucumber plant; 200 ppm
  Degree of chemical injury: 1
Rice plant [9]; 500 ppm
  Degree of chemical injury: 5

## Cc1ccc(Oc2cc(C)nc(-n3nc(C)cc3C)n2)c(C)c1 [Compound 27]
Pyricularia oryzae [2]
  Control Value: 100%
Rice plant [3]
  Degree of chemical injury: 0
Rice plant [4]
  Degree of chemical injury: 0
Cochliobolus miyabeanus [5]
  IC50: 2.2 µg/mL (≈ 7.13 µM)
Pyricularia oryzae [6]
  IC50: 0.02 µg/mL (≈ 0.0649 µM)
Pyricularia oryzae [7]
  Control Value: 100%
Alternaria padwikii
  IC50: 1.9 µg/mL (≈ 6.16 µM)
Penicillium digitatum
  IC50: 1.2 µg/mL (≈ 3.89 µM)
Botrytis cinerea
  IC50: 9.8 µg/mL (≈ 31.8 µM)
Sclerotinia fructigena
  IC50: 1.4 µg/mL (≈ 4.54 µM)
Mycosphaerella melonis
  IC50: 4.6 µg/mL (≈ 14.9 µM)
Glomerella cingulata
  IC50: 6.7 µg/mL (≈ 21.7 µM)
[8]
  IC50: 3.6 µg/mL (≈ 11.7 µM)
Pellicularia sasakii
  IC50: 1 µg/mL (≈ 3.24 µM)
Endothia parasitica
  IC50: 6.3 µg/mL (≈ 20.4 µM)
Sclerotinia sclerotiorum
  IC50: 4.8 µg/mL (≈ 15.6 µM)
Fusarium nivale
  IC50: 2.8 µg/mL (≈ 9.08 µM)
Phizoctonia solani
  IC50: 1.1 µg/mL (≈ 3.57 µM)
Curvularia sp.
  IC50: 1.6 µg/mL (≈ 5.19 µM)
Phoma lingam
  IC50: 3.7 µg/mL (≈ 12 µM)
Diaporthe citri
  IC50: 2.9 µg/mL (≈ 9.4 µM)
